Data taken from US5026733A, “Brain function-improving medicine” (Tsumura & Co., priority 1988, dated 1991).

Experiments:
[1] = test system: locomotor activity by scopolamine; assay: Scopolamine-induced locomotor activity measured by animex; type: in vivo, male ICR strain mouse (6-weeks-old); details: 3 mg/kg p.o.
Procedure: In the same manner as described in Test Example 2, 3 mg/kg of the compound of the formula was orally administered to a male ICR strain mouse (6-weeks-old), and after 2 hours, 2 mg/kg of scopolamine was intraperitoneally administered. For 120 minutes from the point of the application, the locomotor activity was measured by an animex. To the control group, 1% Tween 80 was orally administered and 2 mg/kg of scopolamine was intraperitoneally administered, and the locomotor activity was similarly measured.

[2] = test system: locomotor activity by methamphethamine; assay: Methamphethamine-induced locomotor activity measured by animex; type: in vivo, male ICR strain mouse (5-weeks-old); details: 3 mg/kg p.o.
Procedure: The compound of the formula (3 mg/kg) was orally administered to a male ICR strain mouse (5-weeks-old), and after 2 hours, 2 mg/kg of methamphethamine was intraperitoneally administered. The locomotor activity for every 15 minutes was measured by an animex, and the measurement was conducted for 120 minutes. To the control group, 1% Tween 80 was administered instead of the compound of the formula, and after 2 hours, 2 mg/kg of methamphethamine was intraperitoneally administered. The locomotor activity was similarly measured.

[3] = Acute toxicity by oral administration, mice
[4] = Acute toxicity by oral administration, rats; details: rat, in vivo
[5] = test system: acetylcholine (ACh) content at subcerebral part; assay: ACh content at subcerebral part (HPLC-ECD), with or without scopolamine; type: in vivo, male ICR strain mouse (9-weeks-old)
Procedure: (§1) The compound of the formula was orally administered to a male ICR strain mouse (9-weeks-old), and after 2 hours, 2 mg/kg of scopolamine was applied to the abdominal cavity. After 30 minutes, the mouse was irradiated with 10 KW of microwaves for 0.5 seconds, and the brain was extracted and then divided into two parts, that is, the cerebral cortex (inclusive of hippocampus) and the subcerebral part. The wet weights were measured and the acetylcholine (hereinafter referred to as "ACh") contents were measured according to the following method.
(§2) Each part of the brain was homogenized by 0.1N perchloric acid (HClO4)and subjected to centrifugal separation under 30000 g for 15 minutes. The supernatant was passed through a 0.45 μm microfilter and poured into HPLC-ECD.
(§3) The measurement conditions were as follows.
(§4) Moving phase: phosphate buffer (pH 8.0)
(§5) Enzyme immobilized column: Eicom AC-Enzmpak
(§6) Anakyzing column: Eicom AC-ODS (4.6 mm in diameter and 250 mm in length)
(§7) The compound of the formula was orally administered while scopolamine was not applied, and after 2 hours and 30 minutes, the ACh content was determined in the same manner as described above.

[6] = test system: acetylcholine (ACh) content at cerebral cortex; assay: ACh content at cerebral cortex (HPLC-ECD), with or without scopolamine; type: in vivo, male ICR strain mouse (9-weeks-old)
Procedure: as §1, §2, §3, §4, §5, §6, §7

[7] = Spontaneous movement quantity measured by animex; type: in vivo, male ICR strain mouse (5-weeks-old); details: 3 mg/kg p.o.; 4 hours after administration; control 5123 ± 259
Procedure: (§8) A male ICR strain mouse (5-weeks-old) was admitted in a bright chamber of a step-through passive avoidance learning device. After 60 seconds, a guillotine door was opened. Just after the mouse entered a dark room, the guillotine door was shut, and a foot shock of 0.15 mA was given to the mouse for 5 seconds. This operation was conducted until the mouse stayed in the bright room for more than 1 minute. Then, the mouse was taken out and 3 mg/kg of the compound of the formula was orally administered, and the mouse was returned to a home cage.
(§9) After 24 hours, the mouse was admitted into the bright chamber, and after 60 seconds, the guillotine door was opened and the time required for the mouse to enter in the dark room was measured as 300 seconds at longest. Furthermore, 3 mg/kg of the compound of the formula was orally administered, and the spontaneous movement quantity for 4 hours after the oral administration was measured by an animex and the total quantity was calculated. Note, 1% Tween was orally administered to the control group.

[8] = Step-through passive avoidance learning test; type: in vivo, male ICR strain mouse (5-weeks-old); details: 3 mg/kg p.o.
Procedure: as §8, §9

[9] = also under the application of scopolamine

In the case of `COc1cc2c(c(OC)c1OC)-c1c(cc(OC)c(OC)c1OC)C[C@](C)(O)[C@@H](C)C2` [compound of the formula], the “locomotor activity by scopolamine (in words)” value [1] is reported as “controls the locomotor activity by scopolamine”, the locomotor activity ([1]; 2 h before 2 mg/kg i.p. scopolamine, for 120 minutes, control 6353±296) is reported as 3991±389 and the “locomotor activity by methamphethamine (in words)” value [2] is reported as “controls the locomotor activity by methamphethamine”. For the same compound, the “locomotor activity after 15 minutes” value ([2]; 2 h before 2 mg/kg i.p. methamphethamine, after 15 minutes, control 1250 ± 68) was 1034 ± 111, the “locomotor activity after 30 minutes” value ([2]; 2 h before 2 mg/kg i.p. methamphethamine, after 30 minutes, control 1551 ± 33) was 1295 ± 34 and the “locomotor activity after 45 minutes” value ([2]; 2 h before 2 mg/kg i.p. methamphethamine, after 45 minutes, control 1511 ± 32) was 1245 ± 50. The “locomotor activity after 60 minutes” value ([2]; 2 h before 2 mg/kg i.p. methamphethamine, after 60 minutes, control 1429 ± 38) was 1156 ± 49, the “locomotor activity after 75 minutes” value ([2]; 2 h before 2 mg/kg i.p. methamphethamine, after 75 minutes, control 1344 ± 34) was 1087 ± 40 and the “locomotor activity after 90 minutes” value ([2]; 2 h before 2 mg/kg i.p. methamphethamine, after 90 minutes, control 1228 ± 44) was 989 ± 53. For the same compound, the “locomotor activity after 120 minutes” value ([2]; 2 h before 2 mg/kg i.p. methamphethamine, after 120 minutes, control 1126 ± 28) was 898 ± 60, the LD50 ([3]; mouse, in vivo, po) was 900 mg/kg and the “toxicity (in words)” value ([3]; oral acute toxicity, mice and rats) was “low toxicity”. The LD50 [4] was 900 mg/kg, the “ACh content at subcerebral part” value ([5]; 3 mg/kg p.o., 2 mg/kg scopolamine after 2 h, scopolamine alone 23.3) was 26.9 nM/g of wet weight and the “ACh content at subcerebral part” value ([5]; 3 mg/kg p.o., no scopolamine, 2 h 30 min, untreated 27.8) was 35.0 nM/g of wet weight. For the same compound, the “ACh content at subcerebral part” value ([5]; 30 mg/kg p.o., 2 mg/kg scopolamine after 2 h, scopolamine alone 23.3) was 26.1 nM/g of wet weight, the “ACh content at subcerebral part” value ([5]; 30 mg/kg p.o., no scopolamine, 2 h 30 min, untreated 27.8) was 38.9 nM/g of wet weight and the “ACh content at subcerebral part (in words)” value [5, 9] was “increases the ACh contents at the cerebral cortex and the subcerebral part”. For the same compound, the “ACh content at cerebral cortex” value ([6]; 3 mg/kg p.o., 2 mg/kg scopolamine after 2 h, scopolamine alone 11.4) was 13.9 nM/g of wet weight, the “ACh content at cerebral cortex” value ([6]; 3 mg/kg p.o., no scopolamine, 2 h 30 min, untreated 15.7) was 20.9 nM/g of wet weight and the “ACh content at cerebral cortex” value ([6]; 30 mg/kg p.o., 2 mg/kg scopolamine after 2 h, scopolamine alone 11.4) was 13.7 nM/g of wet weight. For the same compound, the “ACh content at cerebral cortex” value ([6]; 30 mg/kg p.o., no scopolamine, 2 h 30 min, untreated 15.7) was 21.7 nM/g of wet weight, the “ACh content at cerebral cortex (in words)” value [6, 9] was “increases the ACh contents at the cerebral cortex” and the “sum of spontaneous movement quantity for 4 hours” value [7] was 6693 ± 474. For the same compound, the “avoidance learning function (in words)” value [8] was “a reduction of the avoidance learning function is not observed” and the “time required for mouse to enter dark room” value ([8]; 24 hours after foot shock training, measured as 300 seconds at longest, control 229 ± 30.4) was over 300 s.
